Measured values from patent US9999224B2, “Antimicrobial reverse thermal gel and methods of forming and using same” (The Regents of the University of Colorado, a body corporate, priority 2014, dated 2018).

Tested on: cells
Experiment: MTT assay, cytotoxicity / biocompatibility (FIG. 12)
Type: cell-based
Conditions: cells plated on dried polymer layer; Q-PEI-PNIPAAm 20% conjugation at 1, 3 and 5%; negative control growth medium, positive control 5% DMSO
Procedure: FIG. 12 illustrates Cytotoxicity Tests of Q-PEI-PNIPAAm. An MTT assay was conducted to assess the biocompatibility of Q-PEI-PNIPAAm. Several methods were used to conduct this test. Previously, the Q-PEI-PNIPAAm polymer had been placed on top of the cells mixed with the media; however, due to the gelling nature of the sample the polymer was not in contact with the cells for long period of time. Due to this, the methodology was modified and the cells were plated on top of the polymer and then trypsinized and re-plated before conducting the test; however, trypsinizing, centrifuging and re-plating cells can lead to higher variability in number of cells per well and since the cells were not left to attached on the plates for long enough the results may be inaccurate. Finally the polymer was dissolved in alcohol, left to evaporate and then the cells were plated on top. Since the MTT measures absorbance, blanks were required for each sample. However, the layer of polymer on the plate needed to be very thin so the polymer concentration tested was 1, 3 and 5%. […] Chlorhexidine 2%, a common skin preparation solution was tested as a control.
A statistically significant difference was observed between the experimental samples, negative and positive control (cells cultured with 5% DMSO) (***indicates […], and **indicates p<0.05.).

SMILES: [H]/N=C(\N/C(=N/[H])NCCCCCCNC(=N)NC(=N)Nc1ccc(Cl)cc1)Nc1ccc(Cl)cc1 [chlorhexidine]
- Metabolic activity of cells (MTT absorbance) versus controls: the same difference was obtained
